From patent publication US20240010729A1, “COMBINATION THERAPY OF A PD-1 ANTAGONIST AND LAG3 ANTAGONIST AND LENVATINIB OR A PHARMACEUTICALLY ACCEPTABLE SALT THEREOF FOR TREATING PATIENTS WITH CANCER” (MERCK SHARP & DOHME LLC, priority 2020, published 2024)

Legend:
[1] = test system: CT26 colorectal model; assay: CT26 mouse syngeneic tumor model (tumor growth inhibition, survival); conditions: CT26, Day 17; lenvatinib 10 mg/kg oral QD, antibodies 10 mg/kg i.p. every 5 days
Source text: Prior to treatment initiation, female BALB/c mice (for CT26 study) or C57BL/6J mice (for KPC-2838c3 study) aged 8 weeks weighing between 18 to 21 grams were anesthetized and subcutaneously injected into the rear flank with 0.3×10^6 CT26 or 0.5×10^6 KPC-2838c3 log-phase sub-confluent cells. When the mean tumor volume of inoculated animals reached approximately 100 mm^3 (II days later for CT26, 15 days later for KPC-2838c3) mice were pair-matched into 8 treatment groups consisting of 10 mice per group. Treatment groups consisted of: 1) 0.5% methylcellulose (Vehicle)+Isotype mouse IgG1 antibody (migG1); 2) Vehicle+anti-PD-1 mIgG1 antibody (muDX400); 3) Vehicle+anti-LAG3 mIgG1 antibody (28G10); 4) Lenvatinib+isotype; 5) Vehicle+anti-PD-1+anti-LAG3; 6) Lenvatinib+anti-PD-1; 7) Lenvatinib+anti-LAG3; 8) Lenvatinib+anti-PD-1+anti-LAG3. Vehicle and lenvatinib were orally gavage-dosed once daily (QD) at 10 mg/kg body weight. Isotype control, a mouse monoclonal antibody specific for adenoviral hexon of the isotype IgG1, as well as anti-PD-1 and anti-LAG3 antibodies were dosed intraperitoneally every 5 days at 10 mg/kg body weight. Start of treatments was considered Day 0 and dosing based on schedules continued as described until Day 35. Caliper measurements of tumors and body weights were captured twice weekly. […]

[2] = test system: mCRC that is non MSI-H/pMMR; conditions: third line mCRC patients; cited from earlier work

Compound | TGI (tumor growth inhibition) respective to Vehicle-treated animals [1] [%] | 6-month PFS rate [2] [%]
COc1cc2nccc(Oc3ccc(NC(=O)NC4CC4)c(Cl)c3)c2cc1C(N)=O [Lenvatinib, 4-[3-chloro-4-(cyclopropylaminocarbonyl)aminophenoxy]-7-methoxy-6-quinolinecarboxamide] | 54 | –
CNC(=O)c1cc(Oc2ccc(NC(=O)Nc3ccc(Cl)c(C(F)(F)F)c3)c(F)c2)ccn1 [regorafenib] | – | ~15
